From PMC11374660, “The novel family of Warbicin® compounds inhibits glucose uptake both in yeast and human cells and restrains cancer cell proliferation” (Frontiers in Oncology, 2024) come the findings set out here.

Experiment [1] concerns MCF10A breast epithelial cell line transformed with H-RAS^V12. The experiment is described as follows: Growth and apoptosis of MCF10A H-RAS^V12 cells (IncuCyte). It is filed as cell-based, human. Conditions: MCF10A H-RAS^V12, 1 mM glucose, 25 µM. On the procedure:
For both adherent A549 and MCF10A H-RAS^V12 cell lines, growth curves were established using the IncuCyte® ZOOM technology. By collecting phase contrast images, the IncuCyte® software provides a calculated confluency percentage from which growth curves can be deducted. The cell number/density was measured by calculating the confluency of phase objects (cells) sticking on the bottom of the well. Cells were seeded at a density of 1000 - 1500 cells/well in a Nunc-Edge™ 96-well plate (Thermo Fisher Scientific) and growth was typically measured over 3 to 5 days. For the measurement of apoptosis induction using the MCF10A H-RAS^V12 cell line, the IncuCyte® Caspase-3/7 green dye was added to the medium in the recommended concentration at the beginning of the growth curve experiment. Apoptosis was detected by taking fluorescent images by excitation at 488 nm followed by IncuCyte® software analysis. Cell growth of the KMS-12-PE multiple myeloma cell line, which grows in suspension, was measured by manual cell counting. Cells were initially seeded at a density of 10^4 cells/well and incubated for 4 days after which the cell number was counted. For all cell lines, the same medium used for pregrowth was also used for the growth curve experiment, albeit with different glucose concentrations depending on the experimental design. With compound administration, the final concentration of DMSO never exceeded 0.1%. Typically, at least four technical repeats were included per condition.

Another experiment addresses T1, yeast Hxt7 (Saccharomyces cerevisiae, UniProt P39004).
T1 construct: expressed in transfected cells; host or cells: S. cerevisiae RE700A hxt0 gal2Δ (A7) or EBY.VW4000 hxt0 erg4Δ (A9) transformed with pHXT7
The experiment in a line: Glucose uptake by Hxt7 expressed in yeast RE700A hxt^0 gal2Δ. The note with it: 25 µM, hxt^0 gal2Δ strain. It is filed as cell-based, S. cerevisiae. On the procedure:
(§1) Cells of S. cerevisiae were either grown in minimal or rich medium. For minimal medium, cells were grown in Complete Synthetic medium (MP biomedicals) containing 0.5% (w/v) ammonium sulphate (Sigma-Aldrich), 0.17% (w/v) yeast nitrogen base without amino acids and without ammonium sulphate, supplemented with 100 mg/L adenine. In the case of auxotrophic selection, the appropriate composition of essential amino acids (MP Biomedicals) was chosen. For liquid medium, pH was adjusted to 5.5 and for solid medium (2% agar) to 6.5 with KOH. For rich medium, cells were grown on YP medium (1% w/v yeast extract, 2% w/v bacteriological peptone), supplemented with 100 mg/L adenine. Cells of the EBY.VW4000 hxt^0 strain expressing a single HXT carrier or GLUT isoform were (pre)grown in YP medium with 58 mM maltose (which is taken up by its own dedicated maltose transporter). S. cerevisiae cells were always grown at 30°C. Liquid cultures were shaken at 200 rpm.
(§2) Zero-trans uptake of radioactively labeled [U-^14C]glucose, [U-^14C]fructose or [U-^14C]galactose by S. cerevisiae cells was determined in accordance with previous studies ([45], [75]). Cells were grown on different carbon sources depending on the experiment. […] The loaded filter was transferred to a scintillation vial containing 3 mL liquid scintillation cocktail (Ultima-Flo M, Perkin Elmer) and counted using the Hidex 300 SL. […]

The target in the next experiment is T2, human GLUT1^V69M (Homo sapiens, UniProt P11166, V69M).
T2 construct: expressed in transfected cells; host or cells: S. cerevisiae RE700A hxt0 gal2Δ transformed with pFL38Kan-GLUT1^V69M (TEF1 promoter, low-copy)
T2 sequence (P11166 1-492 V69M): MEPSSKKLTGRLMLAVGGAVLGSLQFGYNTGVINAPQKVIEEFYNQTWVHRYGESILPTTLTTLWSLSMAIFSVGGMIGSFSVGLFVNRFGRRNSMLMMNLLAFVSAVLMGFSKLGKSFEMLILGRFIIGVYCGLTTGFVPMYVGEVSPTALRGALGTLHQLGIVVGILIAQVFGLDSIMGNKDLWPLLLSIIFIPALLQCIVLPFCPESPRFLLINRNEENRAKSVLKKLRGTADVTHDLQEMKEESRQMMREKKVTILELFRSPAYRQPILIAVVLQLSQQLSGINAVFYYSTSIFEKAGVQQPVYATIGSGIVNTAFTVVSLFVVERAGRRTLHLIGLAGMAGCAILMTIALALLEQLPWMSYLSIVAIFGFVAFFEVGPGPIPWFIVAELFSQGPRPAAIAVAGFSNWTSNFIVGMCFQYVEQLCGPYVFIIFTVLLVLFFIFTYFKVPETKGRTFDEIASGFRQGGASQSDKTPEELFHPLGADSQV
The experiment is described as follows: Glucose uptake by GLUT1^V69M expressed in yeast RE700A hxt^0 gal2Δ. It is filed as cell-based. Conditions: 25 µM, hxt^0 gal2Δ strain. The protocol: as §1, §2

T1 sequence (P39004 whole entry): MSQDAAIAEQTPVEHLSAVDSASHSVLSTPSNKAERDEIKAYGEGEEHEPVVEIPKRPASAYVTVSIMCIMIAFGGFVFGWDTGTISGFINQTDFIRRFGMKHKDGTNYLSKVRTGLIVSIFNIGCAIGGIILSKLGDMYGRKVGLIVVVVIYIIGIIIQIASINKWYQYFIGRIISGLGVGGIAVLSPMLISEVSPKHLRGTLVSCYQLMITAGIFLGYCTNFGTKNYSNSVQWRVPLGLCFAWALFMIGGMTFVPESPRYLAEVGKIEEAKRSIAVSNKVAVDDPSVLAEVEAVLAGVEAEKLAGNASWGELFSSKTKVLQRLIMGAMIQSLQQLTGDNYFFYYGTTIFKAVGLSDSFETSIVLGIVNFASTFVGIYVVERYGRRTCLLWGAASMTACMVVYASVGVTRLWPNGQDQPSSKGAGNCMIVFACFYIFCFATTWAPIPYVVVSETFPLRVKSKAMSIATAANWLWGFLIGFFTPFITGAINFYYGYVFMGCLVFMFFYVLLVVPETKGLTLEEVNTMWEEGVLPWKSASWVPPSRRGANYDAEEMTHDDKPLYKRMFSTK

On to `Cc1nc(SCC(=O)c2ccc3c(c2)NC(=O)CO3)c2c(-c3cccs3)csc2n1` [WBC-11C], for which, in experiment [1], the “induction of apoptosis (caspase 3/7 dye)” value is on record as “strong induction of apoptosis” and the inhibition of proliferation entry was “highest potency”.
As to `Cc1nc(Sc2nnc3n2CCCCC3)c2c(-c3cccs3)csc2n1` [WBC-A], the “inhibition of 2.5 mM glucose uptake by Hxt7” value at yeast Hxt7 was “inhibited glucose uptake both by Hxt7 and GLUT1^V69M”. The “inhibition of 2.5 mM glucose uptake by GLUT1^V69M” value against human GLUT1^V69M was “inhibited glucose uptake both by Hxt7 and GLUT1^V69M”.
